The values that follow come from ChEMBL document CHEMBL1150976, “The selectivity of protein kinase inhibitors: a further update” (Biochem J, 2007).

For assay [1], the target named is T1, Serine/threonine-protein kinase Chk1 (Homo sapiens) (UniProt O14757).
T1 sequence (whole entry): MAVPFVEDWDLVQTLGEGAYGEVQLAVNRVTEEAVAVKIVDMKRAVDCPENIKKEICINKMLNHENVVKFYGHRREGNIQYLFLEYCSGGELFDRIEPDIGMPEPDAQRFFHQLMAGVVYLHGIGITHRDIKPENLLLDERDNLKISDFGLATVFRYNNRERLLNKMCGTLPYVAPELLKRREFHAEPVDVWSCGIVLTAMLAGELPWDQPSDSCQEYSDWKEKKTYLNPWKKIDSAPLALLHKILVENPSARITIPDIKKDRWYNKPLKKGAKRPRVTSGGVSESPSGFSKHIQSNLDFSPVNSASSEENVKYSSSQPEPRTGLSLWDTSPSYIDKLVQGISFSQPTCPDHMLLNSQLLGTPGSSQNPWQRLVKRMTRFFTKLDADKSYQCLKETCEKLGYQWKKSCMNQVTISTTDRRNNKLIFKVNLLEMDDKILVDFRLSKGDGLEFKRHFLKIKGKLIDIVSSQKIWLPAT
Nature of the assay: Percentage CHK1 activity remaining in the presence of 2uM inhibitor.

In assay [2] the target is MAP kinase-interacting serine/threonine-protein kinase 2 (Homo sapiens) (UniProt Q9HBH9). Nature of the assay: Percentage MNK2 activity remaining in the presence of 2uM inhibitor.
Assay [3] addresses T2, Mitogen-activated protein kinase 12 (Homo sapiens) (UniProt P53778).
T2 sequence (whole entry): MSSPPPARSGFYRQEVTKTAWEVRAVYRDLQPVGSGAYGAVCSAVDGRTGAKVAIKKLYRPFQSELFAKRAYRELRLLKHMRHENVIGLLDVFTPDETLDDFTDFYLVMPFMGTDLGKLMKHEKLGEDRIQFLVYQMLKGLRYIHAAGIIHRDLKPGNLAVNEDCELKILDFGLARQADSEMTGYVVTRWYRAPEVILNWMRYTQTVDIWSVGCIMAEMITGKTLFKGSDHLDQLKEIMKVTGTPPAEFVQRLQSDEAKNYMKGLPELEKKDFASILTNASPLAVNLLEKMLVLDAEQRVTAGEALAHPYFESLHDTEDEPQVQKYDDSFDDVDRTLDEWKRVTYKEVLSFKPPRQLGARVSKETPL
Nature of the assay: Percentage p38-gamma activity remaining in the presence of 3uM inhibitor.

In assay [4] the target is Cyclin-dependent kinase 2/cyclin A (Homo sapiens) (UniProt P24941+P20248+P78396). Briefly: Percentage CDK2-cyclinA activity remaining in the presence of 3uM inhibitor. Type of assay: protein-complex assay.

Sequence of MAP kinase-interacting serine/threonine-protein kinase 2 (Homo sapiens) (Q9HBH9 whole entry, looked up): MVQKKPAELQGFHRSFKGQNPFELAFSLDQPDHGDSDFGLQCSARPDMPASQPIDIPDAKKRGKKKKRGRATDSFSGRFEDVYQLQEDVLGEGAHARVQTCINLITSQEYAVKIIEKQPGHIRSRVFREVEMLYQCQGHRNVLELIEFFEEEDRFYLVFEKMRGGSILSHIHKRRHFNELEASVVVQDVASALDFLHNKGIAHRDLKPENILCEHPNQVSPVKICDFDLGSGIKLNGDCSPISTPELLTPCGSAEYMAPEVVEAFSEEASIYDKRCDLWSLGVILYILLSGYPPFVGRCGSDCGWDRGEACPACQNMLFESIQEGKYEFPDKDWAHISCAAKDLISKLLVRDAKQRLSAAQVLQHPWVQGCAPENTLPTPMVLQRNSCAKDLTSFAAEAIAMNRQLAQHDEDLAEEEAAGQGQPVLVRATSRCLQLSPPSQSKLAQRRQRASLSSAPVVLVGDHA

In the case of `Cn1cc(C2=C(c3ccc(Cl)cc3Cl)C(=O)NC2=O)c2ccccc21`, the figures for the Activity in assay [1] and in assay [2] were 87% and 94%, respectively.
As to `Cc1ccc(-c2c(C(=O)CF)n(CCCO)c3ncnc(N)c23)cc1`, the Activity worked out at 92% in assay [3] and 80% in assay [4].
